Assay results published in the NIST ThermoML archive (doi:10.1016/j.jct.2015.09.002).

Experiment: xn = mol fraction of the nth substance listed
Conditions: 93.2 kPa, Liquid, Vibrating tube method

CC(C)(C)N [2-methyl-2-propanamine] + CC#N
mass density [kg/m3]
Conditions	293.15 K	298.15 K	303.15 K	308.15 K
x2 = 0	692.06	686.65	681.18	675.66
x2 = 0.009	692.79	687.38	681.92	676.4
x2 = 0.0205	693.46	688.06	682.61	677.1
x2 = 0.0313	694.05	688.66	683.22	677.72
x2 = 0.0421	694.67	689.29	683.85	678.36
x2 = 0.0536	695.33	689.95	684.53	679.04
x2 = 0.0625	695.85	690.48	685.06	679.59
x2 = 0.0694	696.27	690.86	685.44	679.97
x2 = 0.0801	696.87	691.5	686.09	680.61
x2 = 0.0874	697.28	691.92	686.51	681.05
x2 = 0.1006	698.07	692.74	687.34	681.89
x2 = 0.1489	701.01	695.71	690.34	684.92
x2 = 0.2023	704.54	699.21	693.83	688.43
x2 = 0.2493	707.7	702.41	697.06	691.72
x2 = 0.3021	711.23	705.97	700.63	695.28
x2 = 0.3487	714.58	709.33	704	698.63
x2 = 0.3998	718.28	713.06	707.73	702.38
x2 = 0.4489	721.98	716.77	711.44	706.12
x2 = 0.501	726.15	720.91	715.64	710.33
x2 = 0.5485	730.26	725.04	719.77	714.47
x2 = 0.6009	735.01	729.79	724.53	719.22
x2 = 0.6494	739.58	734.35	729.08	723.75
x2 = 0.6932	743.94	738.74	733.46	728.14
x2 = 0.7494	749.81	744.57	739.28	733.95
x2 = 0.8001	755.58	750.29	744.99	739.64
x2 = 0.8497	761.5	756.2	750.87	745.51
x2 = 0.8984	767.7	762.38	757.02	751.64
x2 = 0.9093	769.13	763.81	758.46	753.06
x2 = 0.9202	770.57	765.25	759.88	754.48
x2 = 0.9292	771.83	766.5	761.11	755.72
x2 = 0.9401	773.34	768	762.61	757.2
x2 = 0.9501	774.73	769.38	763.99	758.56
x2 = 0.9599	776.15	770.78	765.38	759.96
x2 = 0.9699	777.57	772.2	766.79	761.36
x2 = 0.9795	778.96	773.59	768.17	762.72
x2 = 0.9892	780.39	775.01	769.59	764.14
